Assay results as given in patent publication US20030171347A1, “Sigma receptor antagonists having anti-cocaine properties and uses thereof” (priority 1998, published 2003).

Tests used:
Male, Swiss Webster mice [1] = assay: Dose response for the locomotor stimulatory effects of cocaine; assay type: in vivo; details: cocaine 0-20 mg/kg i.p., 30 min
Male, Swiss Webster mice [2] = assay: Attenuation of cocaine-induced locomotor activity; assay type: in vivo; details: saline pre-treatment, cocaine 0-20 mg/kg i.p.
Male, Swiss Webster mice [3] = assay: Dose response for the behavioral toxic effects of cocaine (convulsions, death)
Male, Swiss Webster mice [4] = assay: Shift of the cocaine convulsion dose curve by sigma receptor agonists; details: saline pre-treatment, cocaine 0-60 mg/kg i.p.
[5] = after lethal dose of cocaine 125 mg/kg i.p.
[6] = cocaine alone 0-150 mg/kg i.p., observed 30 min

For `COC(=O)[C@H]1[C@@H](OC(=O)c2ccccc2)C[C@@H]2CC[C@H]1N2C` [cocaine], the “dose that produced the peak level of locomotor activity” value (Male, Swiss Webster mice [1]) was 10 mg/kg, i.p, the “ED50 for the locomotor stimulatory effects of cocaine” value (Male, Swiss Webster mice [2]) was 6 mg/kg, i.p and the “time at which mice are dead” value (Male, Swiss Webster mice [3]; [5]) was “about 4.5 minutes”. For the same compound, the “time at which mice begin convulsing” value (Male, Swiss Webster mice [3]; [5]) was “approximately 2 minutes”, the “ED50 for cocaine-induced convulsions” value (Male, Swiss Webster mice [3]; [6]) was 59 mg/kg, i.p and the “LD50 for cocaine-induced lethality” value (Male, Swiss Webster mice [3]; [6]) was 108 mg/kg, i.p. For the same compound, the “ED50 for cocaine-induced convulsions” value (Male, Swiss Webster mice [4]) was 58 mg/kg, i.p.
